Reference: paper PMC6732734 (Heliyon, 2019)

Test: In vivo gentamicin release / pharmacokinetics after tail vein injection
Parameters: species or system Wistar rats
Conditions: rat

- AUC(0-inf) (male, Wistar, plasma, iv, 2 mg): 203 µg·h/mL
- Cmax (male, Wistar, plasma, iv, 2 mg): 8400 ng/mL
- Tmax (male, Wistar, plasma, iv, 2 mg): 1 h
- Vd (male, Wistar, plasma, iv, 2 mg): 0.1 L/kg
- clearance (male, Wistar, plasma, iv, 2 mg): 5 mL/h/kg
- time up to which gentamicin was detectable in the plasma (intravenous): up to 6 h
SMILES: CNC(C)C1CCC(N)C(OC2C(N)CC(N)C(OC3OCC(C)(O)C(NC)C3O)C2O)O1 (stereo not drawn) [Pure drug, Gentamicin]
